The text below walks through data of US8895726B2, “Compounds derived from indole and pharmaceutical compositions containing them” (The Institut Curie, priority 2007, dated 2014).

The structures appear in SMILES notation.

This test addresses T1, interaction between hUPF1 and hSMG5 (Homo sapiens, UniProt Q92900+Q9UPR3).
T1 construct: a complementary analysis of the immunoprecipitates of the hUPF1 protein from HeLa cells; endogenous in cells; host or cells: HeLa
T1 sequence (Q92900 1-1129): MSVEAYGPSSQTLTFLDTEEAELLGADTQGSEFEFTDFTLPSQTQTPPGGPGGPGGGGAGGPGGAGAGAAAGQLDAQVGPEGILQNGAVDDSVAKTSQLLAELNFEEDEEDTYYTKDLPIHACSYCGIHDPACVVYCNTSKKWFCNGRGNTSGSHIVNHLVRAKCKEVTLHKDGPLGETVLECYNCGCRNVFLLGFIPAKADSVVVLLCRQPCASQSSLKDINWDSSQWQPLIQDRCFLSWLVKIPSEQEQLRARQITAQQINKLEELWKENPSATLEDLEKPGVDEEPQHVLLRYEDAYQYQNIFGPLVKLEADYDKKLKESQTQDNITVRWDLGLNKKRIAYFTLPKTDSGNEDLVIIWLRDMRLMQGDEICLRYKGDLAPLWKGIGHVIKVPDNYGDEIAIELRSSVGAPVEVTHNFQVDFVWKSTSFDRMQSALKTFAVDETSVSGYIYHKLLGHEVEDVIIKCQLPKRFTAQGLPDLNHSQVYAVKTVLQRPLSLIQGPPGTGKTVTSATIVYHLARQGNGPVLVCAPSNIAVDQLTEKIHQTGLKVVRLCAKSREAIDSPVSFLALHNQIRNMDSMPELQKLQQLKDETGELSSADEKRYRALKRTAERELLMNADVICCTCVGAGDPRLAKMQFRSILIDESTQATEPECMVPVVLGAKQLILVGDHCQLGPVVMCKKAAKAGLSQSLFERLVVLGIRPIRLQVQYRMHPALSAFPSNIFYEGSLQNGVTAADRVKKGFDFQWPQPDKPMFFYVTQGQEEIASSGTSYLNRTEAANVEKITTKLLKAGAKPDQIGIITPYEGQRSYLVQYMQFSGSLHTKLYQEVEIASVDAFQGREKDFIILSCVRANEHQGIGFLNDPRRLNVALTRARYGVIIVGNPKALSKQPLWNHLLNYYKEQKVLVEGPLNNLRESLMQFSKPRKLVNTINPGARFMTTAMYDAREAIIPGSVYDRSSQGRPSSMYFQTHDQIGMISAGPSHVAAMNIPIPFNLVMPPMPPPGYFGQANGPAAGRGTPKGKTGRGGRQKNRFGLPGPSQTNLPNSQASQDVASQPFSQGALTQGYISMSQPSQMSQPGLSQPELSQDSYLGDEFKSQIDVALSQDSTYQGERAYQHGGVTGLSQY
T1 sequence (Q9UPR3 2-1016 limits assumed): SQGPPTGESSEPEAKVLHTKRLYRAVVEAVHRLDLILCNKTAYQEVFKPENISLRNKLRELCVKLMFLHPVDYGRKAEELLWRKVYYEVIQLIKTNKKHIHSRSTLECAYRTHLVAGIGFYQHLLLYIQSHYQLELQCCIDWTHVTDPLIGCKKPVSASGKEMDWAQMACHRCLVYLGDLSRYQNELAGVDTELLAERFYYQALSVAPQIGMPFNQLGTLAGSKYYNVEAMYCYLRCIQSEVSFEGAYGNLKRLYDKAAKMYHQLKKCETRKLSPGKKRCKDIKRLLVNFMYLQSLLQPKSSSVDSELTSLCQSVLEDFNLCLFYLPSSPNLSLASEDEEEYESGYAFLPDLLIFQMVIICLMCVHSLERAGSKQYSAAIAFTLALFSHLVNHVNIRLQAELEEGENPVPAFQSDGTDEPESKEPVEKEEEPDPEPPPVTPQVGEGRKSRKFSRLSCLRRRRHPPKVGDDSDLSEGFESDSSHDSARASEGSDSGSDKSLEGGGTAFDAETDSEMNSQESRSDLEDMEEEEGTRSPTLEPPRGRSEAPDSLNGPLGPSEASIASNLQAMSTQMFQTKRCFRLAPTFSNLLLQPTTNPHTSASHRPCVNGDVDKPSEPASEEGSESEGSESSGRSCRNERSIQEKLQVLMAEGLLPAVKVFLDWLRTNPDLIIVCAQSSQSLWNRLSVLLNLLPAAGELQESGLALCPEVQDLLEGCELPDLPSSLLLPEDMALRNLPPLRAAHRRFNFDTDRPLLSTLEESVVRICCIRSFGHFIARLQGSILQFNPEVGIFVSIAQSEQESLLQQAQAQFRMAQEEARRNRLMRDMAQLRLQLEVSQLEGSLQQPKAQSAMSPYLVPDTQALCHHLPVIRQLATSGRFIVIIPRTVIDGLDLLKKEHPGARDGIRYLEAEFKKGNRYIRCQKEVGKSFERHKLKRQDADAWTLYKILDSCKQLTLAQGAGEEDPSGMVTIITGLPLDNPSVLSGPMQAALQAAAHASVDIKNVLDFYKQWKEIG
The test is described as follows: hUPF1 immunoprecipitation, dephosphorylation complex. Format: cell-based. The conditions noted are these: HeLa cells. On the procedure: Immunopurification of hUPF1 and western blot analysis were carried out according to a procedure described earlier (Lejeune and Maquat, 2004) by using an anti-hUPF1 antibody (Ohnishi et al., 2003), The western blot analyses were conducted by using a 1/250 dilution of anti-hUPF1, anti-hSMG5, anti-hSMG6 or anti-hSMG7 rabbit antibodies (Ohnishi et al., 2003), a 1/1000 dilution of anti-hUPF3/3X rabbit antibody (Ishigaki et al., 2001) or of anti-TUBILIN mouse antibody (SIGMA-ALDRICH). The proteins were detected by using the <<SuperSignal West Pico Chemiluminescent Substrate>> or <<SuperSignal West Femto Maximum Sensitivity Substrate>> (PIERCE).
In order to determine which of both mechanisms would be induced by the identified compounds, a complementary analysis of the immunoprecipitates of the hUPF1 protein from HeLa cells, either incubated or not in the presence of the compound 70, was carried out.
In a first phase, the analysis of hUPF1 with its dephosphorylation complex was carried out. The results have shown that hSMG5, hSMG6 and hSMG7 may be detected in cells treated with DMSO but that hSMG5 was undetectable on the other hand when the HeLa cells had been incubated beforehand with compound 70.

For the molecule `Cc1c2ccnc(Cl)c2c(C)c2c1[nH]c1ncccc12` [Compound 70, 6-Chloro-5,1-0dimethyl-11H-pyrido[3′,2′:4,5]-pyrrolo[3,2-g]isoquinoline], the “hSMG5 in hUPF1 immunoprecipitates” value is listed as “undetectable”.
